Source: ChEMBL document CHEMBL5291721, “A preclinical secondary pharmacology resource illuminates target-adverse drug reaction associations of marketed drugs” (Nat Commun, 2023)

Key:
Adenosine receptor A3 = molecular target: T1, Adenosine receptor A3 (Homo sapiens, UniProt P0DMS8)
T1 sequence (P0DMS8 whole entry): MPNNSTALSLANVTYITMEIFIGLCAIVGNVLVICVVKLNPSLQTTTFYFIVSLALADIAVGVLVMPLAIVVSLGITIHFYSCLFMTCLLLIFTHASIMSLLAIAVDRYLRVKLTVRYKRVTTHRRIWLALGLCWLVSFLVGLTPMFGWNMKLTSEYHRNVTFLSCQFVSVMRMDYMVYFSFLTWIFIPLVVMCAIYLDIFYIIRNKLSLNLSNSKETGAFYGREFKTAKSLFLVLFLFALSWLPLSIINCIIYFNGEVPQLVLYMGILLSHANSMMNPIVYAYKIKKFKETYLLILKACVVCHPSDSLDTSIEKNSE

[1] = molecular target: T2, Alpha-2A adrenergic receptor (Homo sapiens, UniProt P08913)
T2 sequence (P08913 whole entry): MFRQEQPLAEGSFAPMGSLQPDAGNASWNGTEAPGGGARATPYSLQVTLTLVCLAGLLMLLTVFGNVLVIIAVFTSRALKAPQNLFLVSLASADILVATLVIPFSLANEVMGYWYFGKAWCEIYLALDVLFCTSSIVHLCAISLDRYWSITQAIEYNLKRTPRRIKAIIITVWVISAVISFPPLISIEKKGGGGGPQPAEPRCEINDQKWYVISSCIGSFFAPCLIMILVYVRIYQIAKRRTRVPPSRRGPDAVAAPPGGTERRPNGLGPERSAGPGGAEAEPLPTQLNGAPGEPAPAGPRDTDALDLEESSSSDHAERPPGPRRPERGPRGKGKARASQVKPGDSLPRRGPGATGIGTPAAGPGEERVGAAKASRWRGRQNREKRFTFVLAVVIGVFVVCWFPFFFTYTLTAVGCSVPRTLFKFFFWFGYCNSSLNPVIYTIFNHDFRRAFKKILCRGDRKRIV

[2] = molecular target: Beta-3 adrenergic receptor (Homo sapiens, UniProt P13945)
Chain of Beta-3 adrenergic receptor (P13945 whole entry): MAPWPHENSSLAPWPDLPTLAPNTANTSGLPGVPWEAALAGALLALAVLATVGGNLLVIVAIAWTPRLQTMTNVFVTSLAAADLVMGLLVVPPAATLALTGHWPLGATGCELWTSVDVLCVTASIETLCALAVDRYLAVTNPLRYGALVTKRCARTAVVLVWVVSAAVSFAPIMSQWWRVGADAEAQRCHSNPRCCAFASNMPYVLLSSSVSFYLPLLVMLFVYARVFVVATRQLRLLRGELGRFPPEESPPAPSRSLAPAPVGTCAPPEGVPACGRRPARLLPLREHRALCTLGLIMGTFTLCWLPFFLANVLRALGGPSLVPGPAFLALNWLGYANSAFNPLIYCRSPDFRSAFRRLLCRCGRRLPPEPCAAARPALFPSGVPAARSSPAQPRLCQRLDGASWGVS

Vasopressin V1a receptor = Vasopressin V1a receptor (Homo sapiens, UniProt P37288)
Chain of Vasopressin V1a receptor (P37288 whole entry): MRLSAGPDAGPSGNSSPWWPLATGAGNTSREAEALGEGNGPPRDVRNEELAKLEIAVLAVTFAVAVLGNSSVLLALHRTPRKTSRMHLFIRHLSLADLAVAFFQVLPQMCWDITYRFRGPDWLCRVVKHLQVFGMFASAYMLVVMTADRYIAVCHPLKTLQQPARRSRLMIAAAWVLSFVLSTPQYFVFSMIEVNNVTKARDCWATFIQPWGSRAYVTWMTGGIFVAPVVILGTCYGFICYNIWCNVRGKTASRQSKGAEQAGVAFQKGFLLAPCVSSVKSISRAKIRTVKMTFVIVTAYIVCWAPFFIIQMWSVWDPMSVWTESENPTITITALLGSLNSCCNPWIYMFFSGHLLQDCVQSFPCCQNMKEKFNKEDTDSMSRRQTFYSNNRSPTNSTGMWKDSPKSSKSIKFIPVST

Vasopressin V2 receptor = Vasopressin V2 receptor (Homo sapiens, UniProt P30518)
Chain of Vasopressin V2 receptor (P30518 whole entry): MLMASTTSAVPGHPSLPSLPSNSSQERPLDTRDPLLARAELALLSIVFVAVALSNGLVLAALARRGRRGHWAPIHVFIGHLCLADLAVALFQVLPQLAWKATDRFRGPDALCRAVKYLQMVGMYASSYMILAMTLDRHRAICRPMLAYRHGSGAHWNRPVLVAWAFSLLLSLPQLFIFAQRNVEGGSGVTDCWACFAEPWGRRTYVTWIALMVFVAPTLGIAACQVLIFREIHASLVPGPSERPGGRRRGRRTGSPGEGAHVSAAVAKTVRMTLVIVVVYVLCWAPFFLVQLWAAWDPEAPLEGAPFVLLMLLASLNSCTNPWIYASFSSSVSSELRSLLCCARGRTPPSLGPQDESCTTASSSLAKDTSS

[3] = molecular target: Voltage-dependent L-type calcium channel subunit alpha-1C (Rattus norvegicus, UniProt P22002); format: functional
[4] = molecular target: T3, Muscarinic acetylcholine receptor M1 (Homo sapiens, UniProt P11229); format: functional
T3 sequence (P11229 whole entry): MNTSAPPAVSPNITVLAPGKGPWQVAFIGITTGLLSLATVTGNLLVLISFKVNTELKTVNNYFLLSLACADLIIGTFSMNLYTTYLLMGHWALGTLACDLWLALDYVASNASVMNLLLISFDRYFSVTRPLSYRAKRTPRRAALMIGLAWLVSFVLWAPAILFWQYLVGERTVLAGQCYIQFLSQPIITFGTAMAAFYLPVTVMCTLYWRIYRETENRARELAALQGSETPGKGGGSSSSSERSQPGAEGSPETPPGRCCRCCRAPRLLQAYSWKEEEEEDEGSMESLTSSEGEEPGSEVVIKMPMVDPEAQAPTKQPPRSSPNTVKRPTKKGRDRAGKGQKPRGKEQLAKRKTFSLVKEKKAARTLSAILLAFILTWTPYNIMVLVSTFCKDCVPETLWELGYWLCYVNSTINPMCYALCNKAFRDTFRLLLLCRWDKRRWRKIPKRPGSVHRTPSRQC

Cannabinoid receptor 1 = Cannabinoid receptor 1 (Homo sapiens, UniProt P21554)
Chain of Cannabinoid receptor 1 (P21554 whole entry): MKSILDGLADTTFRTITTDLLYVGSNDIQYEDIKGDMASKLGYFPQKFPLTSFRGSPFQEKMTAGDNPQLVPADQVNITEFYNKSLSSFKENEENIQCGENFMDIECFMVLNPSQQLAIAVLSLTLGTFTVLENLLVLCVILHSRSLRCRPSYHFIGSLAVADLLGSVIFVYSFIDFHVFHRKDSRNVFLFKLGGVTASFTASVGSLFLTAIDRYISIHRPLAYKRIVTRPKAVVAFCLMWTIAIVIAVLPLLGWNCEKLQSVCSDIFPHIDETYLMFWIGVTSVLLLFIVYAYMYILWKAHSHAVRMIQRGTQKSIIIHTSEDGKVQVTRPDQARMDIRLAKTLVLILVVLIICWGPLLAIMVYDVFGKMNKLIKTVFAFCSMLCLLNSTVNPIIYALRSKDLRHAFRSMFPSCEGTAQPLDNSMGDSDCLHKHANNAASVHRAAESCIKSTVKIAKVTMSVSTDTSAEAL

D(1A) dopamine receptor = D(1A) dopamine receptor (Homo sapiens, UniProt P21728)
Chain of D(1A) dopamine receptor (P21728 whole entry): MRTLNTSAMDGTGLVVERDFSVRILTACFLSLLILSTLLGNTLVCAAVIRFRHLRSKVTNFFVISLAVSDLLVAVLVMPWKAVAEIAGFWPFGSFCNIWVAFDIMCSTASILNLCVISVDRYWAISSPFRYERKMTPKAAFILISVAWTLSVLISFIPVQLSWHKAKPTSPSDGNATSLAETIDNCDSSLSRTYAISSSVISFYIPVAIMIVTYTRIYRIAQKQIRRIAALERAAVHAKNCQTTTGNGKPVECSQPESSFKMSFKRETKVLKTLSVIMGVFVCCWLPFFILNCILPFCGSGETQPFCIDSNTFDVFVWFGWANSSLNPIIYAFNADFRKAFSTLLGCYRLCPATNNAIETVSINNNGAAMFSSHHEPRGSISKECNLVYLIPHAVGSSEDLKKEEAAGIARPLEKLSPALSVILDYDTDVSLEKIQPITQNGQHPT

[5] = molecular target: Gamma-aminobutyric acid receptor subunit alpha-1/alpha-2/beta-2/gamma-2 (Homo sapiens, UniProt P14867+P18507+P47869+P47870); format: protein-complex assay
Histamine H2 receptor = Histamine H2 receptor (Homo sapiens, UniProt P25021); format: functional, cell-based
Chain of Histamine H2 receptor (P25021 whole entry): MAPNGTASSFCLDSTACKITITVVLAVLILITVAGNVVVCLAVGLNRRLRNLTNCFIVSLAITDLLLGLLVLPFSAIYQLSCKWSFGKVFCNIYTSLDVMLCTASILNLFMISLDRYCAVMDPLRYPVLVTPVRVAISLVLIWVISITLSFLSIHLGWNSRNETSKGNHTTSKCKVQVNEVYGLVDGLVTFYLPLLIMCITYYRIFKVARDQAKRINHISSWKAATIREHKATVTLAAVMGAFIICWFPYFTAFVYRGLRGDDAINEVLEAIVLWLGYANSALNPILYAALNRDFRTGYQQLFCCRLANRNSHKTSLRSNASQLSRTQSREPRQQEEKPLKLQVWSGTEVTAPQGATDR

[6] = molecular target: Vascular endothelial growth factor receptor 2 (Homo sapiens, UniProt P35968); format: functional
Chain of Vascular endothelial growth factor receptor 2 (P35968 whole entry): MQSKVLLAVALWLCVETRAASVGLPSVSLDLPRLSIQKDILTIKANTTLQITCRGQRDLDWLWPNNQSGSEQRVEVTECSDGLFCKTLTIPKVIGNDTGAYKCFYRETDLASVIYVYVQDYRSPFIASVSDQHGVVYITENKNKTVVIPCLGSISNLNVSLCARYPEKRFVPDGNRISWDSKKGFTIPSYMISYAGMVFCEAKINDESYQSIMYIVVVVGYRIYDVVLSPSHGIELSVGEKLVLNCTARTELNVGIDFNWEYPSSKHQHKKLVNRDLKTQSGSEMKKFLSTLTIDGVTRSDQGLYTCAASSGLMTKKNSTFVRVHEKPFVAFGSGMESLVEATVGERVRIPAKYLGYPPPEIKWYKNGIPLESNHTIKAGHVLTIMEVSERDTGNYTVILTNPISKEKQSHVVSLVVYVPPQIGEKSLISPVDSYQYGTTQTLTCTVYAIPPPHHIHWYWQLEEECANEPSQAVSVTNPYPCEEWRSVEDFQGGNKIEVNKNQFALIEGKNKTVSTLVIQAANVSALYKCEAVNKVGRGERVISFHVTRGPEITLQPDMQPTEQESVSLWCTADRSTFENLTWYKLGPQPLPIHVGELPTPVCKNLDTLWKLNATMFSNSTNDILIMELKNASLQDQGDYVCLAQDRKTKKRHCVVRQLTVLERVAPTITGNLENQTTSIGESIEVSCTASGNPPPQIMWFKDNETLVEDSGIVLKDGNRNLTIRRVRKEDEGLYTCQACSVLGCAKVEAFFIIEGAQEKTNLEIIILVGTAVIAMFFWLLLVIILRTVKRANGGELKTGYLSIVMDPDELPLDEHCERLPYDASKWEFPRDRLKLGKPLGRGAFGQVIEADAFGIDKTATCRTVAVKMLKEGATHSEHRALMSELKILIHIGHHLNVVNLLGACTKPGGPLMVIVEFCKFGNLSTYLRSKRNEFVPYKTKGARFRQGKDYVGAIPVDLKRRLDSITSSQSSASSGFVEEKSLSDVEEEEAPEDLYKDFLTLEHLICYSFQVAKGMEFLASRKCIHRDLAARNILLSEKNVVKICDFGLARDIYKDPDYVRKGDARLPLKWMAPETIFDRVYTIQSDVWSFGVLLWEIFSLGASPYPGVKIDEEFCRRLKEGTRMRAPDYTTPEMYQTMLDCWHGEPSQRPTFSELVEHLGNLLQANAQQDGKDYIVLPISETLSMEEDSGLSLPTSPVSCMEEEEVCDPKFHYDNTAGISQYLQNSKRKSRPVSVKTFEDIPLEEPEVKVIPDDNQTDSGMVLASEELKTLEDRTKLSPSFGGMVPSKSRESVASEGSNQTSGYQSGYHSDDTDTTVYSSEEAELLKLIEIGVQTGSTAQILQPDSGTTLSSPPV

[7] = molecular target: T4, Prostaglandin G/H synthase 1 (Homo sapiens, UniProt P23219); format: functional
T4 sequence (P23219 whole entry): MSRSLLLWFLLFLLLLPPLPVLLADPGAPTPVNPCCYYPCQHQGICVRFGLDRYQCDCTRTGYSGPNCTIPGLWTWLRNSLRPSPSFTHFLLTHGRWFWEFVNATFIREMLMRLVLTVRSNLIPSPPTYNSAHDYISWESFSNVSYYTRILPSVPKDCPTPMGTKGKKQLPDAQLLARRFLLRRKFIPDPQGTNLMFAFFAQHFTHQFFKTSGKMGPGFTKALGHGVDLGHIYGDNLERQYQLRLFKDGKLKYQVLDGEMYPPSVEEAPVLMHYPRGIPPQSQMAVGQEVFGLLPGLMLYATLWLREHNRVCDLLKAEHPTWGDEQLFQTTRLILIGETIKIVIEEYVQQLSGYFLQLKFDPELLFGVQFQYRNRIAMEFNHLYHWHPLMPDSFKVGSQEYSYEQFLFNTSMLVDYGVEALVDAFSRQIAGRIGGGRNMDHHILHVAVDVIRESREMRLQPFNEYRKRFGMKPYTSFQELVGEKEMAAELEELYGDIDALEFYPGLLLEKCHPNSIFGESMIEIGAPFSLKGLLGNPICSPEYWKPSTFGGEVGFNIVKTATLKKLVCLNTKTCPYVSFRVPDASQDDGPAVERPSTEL

[8] = molecular target: T4, Prostaglandin G/H synthase 1; format: functional; remark: listed apart in the source
[9] = molecular target: T5, Alpha-1A adrenergic receptor (Homo sapiens, UniProt P35348); format: functional, cell-based
T5 sequence (P35348 whole entry): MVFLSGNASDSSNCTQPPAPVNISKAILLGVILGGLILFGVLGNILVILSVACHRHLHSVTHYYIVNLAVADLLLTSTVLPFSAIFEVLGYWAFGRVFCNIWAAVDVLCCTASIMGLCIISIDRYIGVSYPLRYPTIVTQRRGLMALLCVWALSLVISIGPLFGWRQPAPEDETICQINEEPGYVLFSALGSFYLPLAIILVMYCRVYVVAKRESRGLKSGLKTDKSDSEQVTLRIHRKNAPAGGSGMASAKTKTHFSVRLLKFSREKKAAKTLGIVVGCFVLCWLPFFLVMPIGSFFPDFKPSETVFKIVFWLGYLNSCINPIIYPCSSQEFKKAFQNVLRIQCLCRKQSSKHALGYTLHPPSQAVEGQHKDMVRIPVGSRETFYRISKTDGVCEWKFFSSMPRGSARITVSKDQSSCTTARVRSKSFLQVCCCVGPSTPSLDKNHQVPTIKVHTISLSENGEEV
Also: assay procedure not described here.

Row | Structure (SMILES) | AC50 (Adenosine receptor A3) | AC50 [1] | AC50 [2] | AC50 (Vasopressin V1a receptor) | AC50 (Vasopressin V2 receptor) | AC50 [3] | AC50 [4] | AC50 (Cannabinoid receptor 1) | AC50 (D(1A) dopamine receptor) | AC50 [5] | AC50 (Histamine H2 receptor) | AC50 [6] | AC50 [7] | AC50 [8] | AC50 [9]
1 | COc1cc2c(cc1OC)C(=O)C(CC1CCN(Cc3ccccc3)CC1)C2 (stereo unspecified) [DONEPEZIL] | > 30 µM | 15.9 µM | > 30 µM | > 30 µM | > 30 µM | > 10 µM | 8.2 µM | > 10 µM | > 30 µM | > 30 µM | > 10 µM | > 30 µM | > 30 µM | > 30 µM | 
2 | CC1(C)O[C@@H]2C[C@H]3[C@@H]4C[C@H](F)C5=CC(=O)CC[C@]5(C)[C@H]4[C@@H](O)C[C@]3(C)[C@]2(C(=O)CO)O1 [FLURANDRENOLIDE] | > 30 µM | > 30 µM |  |  |  |  |  |  | > 30 µM | > 30 µM |  | > 30 µM | > 30 µM | > 30 µM | > 30 µM
3 | CC(C)C(=O)Nc1ccc([N+](=O)[O-])c(C(F)(F)F)c1 [FLUTAMIDE] | 20.3 µM | > 30 µM |  | > 30 µM | > 30 µM | > 10 µM |  | > 10 µM | > 30 µM | > 10 µM | > 30 µM | > 30 µM | > 30 µM | > 30 µM | 9.04 µM
4 | C#C[C@]1(O)CC[C@H]2[C@@H]3CCC4=CC(=O)CC[C@@H]4[C@H]3CC[C@@]21CC [LEVONORGESTREL] | > 30 µM | > 30 µM |  |  |  |  |  |  | > 30 µM | > 30 µM |  | > 30 µM | > 30 µM | > 30 µM | > 30 µM
5 | OC[C@@H](O)[C@@H](O)[C@H](O)[C@H](O)CO [MANNITOL] | > 30 µM | > 30 µM |  |  |  |  |  |  | > 30 µM | > 30 µM |  | > 30 µM | > 30 µM | > 30 µM | > 30 µM
6 | Sc1ncnc2nc[nH]c12 [MERCAPTOPURINE ANHYDROUS] | > 30 µM | > 30 µM |  |  |  |  |  |  | > 30 µM | > 30 µM |  | > 30 µM | 14.6 µM | > 30 µM | > 30 µM
7 | C[N+]1(C)[C@@H]2C[C@@H](OC(=O)[C@H](CO)c3ccccc3)C[C@H]1[C@@H]1O[C@@H]12 [METHSCOPOLAMINE] | > 30 µM | > 30 µM |  |  |  |  |  |  | > 30 µM | > 30 µM |  | > 30 µM | > 30 µM | > 30 µM | > 30 µM
8 | CC(=O)Oc1c(C)cc(OCC(O)CNC(C)C)c(C)c1C (stereo unspecified) [METIPRANOLOL] | > 30 µM | > 30 µM |  |  |  |  |  |  | > 30 µM | > 30 µM |  | > 30 µM | > 30 µM | > 30 µM | > 30 µM
9 | CCN(CC)CCNC(=O)c1cc(Cl)c(N)cc1OC [METOCLOPRAMIDE] |  |  | > 30 µM | > 10 µM | > 30 µM | > 10 µM |  | > 10 µM |  |  | > 10 µM |  |  |  | 
